Data published in doi:10.1101/2024.08.19.608619, “Discovery of potent SARS-CoV-2 nsp3 macrodomain inhibitors uncovers lack of translation to cellular antiviral response” (bioRxiv, 2024).
Values joined by “and” are separate entries in the source; they are usually repeats but may differ in a detail not shown here. Equal values may be shown once.

Key:
CCK1 (CCKA) (h) = target: T1, CCK1 (CCKA) (h) (Homo sapiens, UniProt P32238); assay: In vitro CEREP profiling, CCK1 (CCKA) (h) (agonist radioligand); type: binding; conditions: test compound 10 uM
T1 construct: purchased Eurofins Cerep (SafetyScreen44), recognised from the panel format
T1 sequence (P32238 1-428): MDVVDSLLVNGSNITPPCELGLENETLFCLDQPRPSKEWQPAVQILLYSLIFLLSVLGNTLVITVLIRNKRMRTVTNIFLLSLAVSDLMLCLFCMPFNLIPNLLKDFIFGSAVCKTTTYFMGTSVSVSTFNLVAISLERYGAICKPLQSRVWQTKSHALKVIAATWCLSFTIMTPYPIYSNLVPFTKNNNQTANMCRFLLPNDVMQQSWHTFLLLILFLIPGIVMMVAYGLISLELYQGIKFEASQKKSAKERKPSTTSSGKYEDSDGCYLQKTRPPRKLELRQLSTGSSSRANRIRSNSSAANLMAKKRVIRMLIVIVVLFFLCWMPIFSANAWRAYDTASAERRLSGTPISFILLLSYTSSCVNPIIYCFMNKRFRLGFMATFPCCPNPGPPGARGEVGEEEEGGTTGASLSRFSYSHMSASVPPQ
Source text: (§1) Supplement media-1.zip/Safety_Panel_Profile.csv, table | column: perc_inhibition

D2S (h) = target: T2, D2S (h) (Homo sapiens, UniProt P14416); assay: In vitro CEREP profiling, D2S (h) (agonist radioligand); type: binding; conditions: test compound 10 uM
T2 construct: purchased Eurofins Cerep (SafetyScreen44), recognised from the panel format
T2 sequence (P14416 1-414 isoform P14416-2): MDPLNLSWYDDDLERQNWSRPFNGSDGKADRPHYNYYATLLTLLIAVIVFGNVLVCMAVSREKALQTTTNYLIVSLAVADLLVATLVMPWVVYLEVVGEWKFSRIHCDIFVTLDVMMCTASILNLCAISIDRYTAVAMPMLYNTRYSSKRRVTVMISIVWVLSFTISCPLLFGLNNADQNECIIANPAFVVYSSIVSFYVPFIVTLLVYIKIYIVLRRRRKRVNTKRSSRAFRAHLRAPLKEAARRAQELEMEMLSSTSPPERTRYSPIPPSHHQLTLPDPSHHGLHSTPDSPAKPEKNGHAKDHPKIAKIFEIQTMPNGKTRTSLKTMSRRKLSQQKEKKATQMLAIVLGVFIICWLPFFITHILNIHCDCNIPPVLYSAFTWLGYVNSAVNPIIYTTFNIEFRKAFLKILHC
Source text: as §1

5-HT transporter (h) = target: T3, 5-HT transporter (h) (Homo sapiens, UniProt P31645); assay: In vitro CEREP profiling, 5-HT transporter (h) (antagonist radioligand); conditions: test compound concentration 10 uM
T3 construct: purchased Eurofins Cerep (SafetyScreen44), recognised from the panel format
T3 sequence (P31645 whole entry): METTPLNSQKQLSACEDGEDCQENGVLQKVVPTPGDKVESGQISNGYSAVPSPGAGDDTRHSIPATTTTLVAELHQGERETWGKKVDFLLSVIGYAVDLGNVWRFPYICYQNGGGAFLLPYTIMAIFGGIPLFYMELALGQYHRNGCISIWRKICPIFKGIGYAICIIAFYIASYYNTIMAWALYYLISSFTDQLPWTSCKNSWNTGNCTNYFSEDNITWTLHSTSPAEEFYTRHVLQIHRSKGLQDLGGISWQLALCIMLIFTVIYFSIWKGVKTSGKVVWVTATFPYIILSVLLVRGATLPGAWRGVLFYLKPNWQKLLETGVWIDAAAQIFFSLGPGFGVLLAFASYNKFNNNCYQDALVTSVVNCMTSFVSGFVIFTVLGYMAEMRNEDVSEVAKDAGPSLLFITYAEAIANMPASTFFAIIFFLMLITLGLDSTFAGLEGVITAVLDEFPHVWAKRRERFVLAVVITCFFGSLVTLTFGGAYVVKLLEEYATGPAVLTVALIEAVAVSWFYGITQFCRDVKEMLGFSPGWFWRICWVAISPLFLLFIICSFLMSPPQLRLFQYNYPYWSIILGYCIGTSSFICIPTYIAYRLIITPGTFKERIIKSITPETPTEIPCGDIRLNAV
Source text: as §1

alpha1A (h) = target: T4, alpha1A (h) (Homo sapiens, UniProt P35348); assay: In vitro CEREP profiling, alpha1A (h) (antagonist radioligand); type: binding; conditions: test compound 10 uM
T4 construct: purchased Eurofins Cerep (SafetyScreen44), recognised from the panel format
T4 sequence (P35348 1-466): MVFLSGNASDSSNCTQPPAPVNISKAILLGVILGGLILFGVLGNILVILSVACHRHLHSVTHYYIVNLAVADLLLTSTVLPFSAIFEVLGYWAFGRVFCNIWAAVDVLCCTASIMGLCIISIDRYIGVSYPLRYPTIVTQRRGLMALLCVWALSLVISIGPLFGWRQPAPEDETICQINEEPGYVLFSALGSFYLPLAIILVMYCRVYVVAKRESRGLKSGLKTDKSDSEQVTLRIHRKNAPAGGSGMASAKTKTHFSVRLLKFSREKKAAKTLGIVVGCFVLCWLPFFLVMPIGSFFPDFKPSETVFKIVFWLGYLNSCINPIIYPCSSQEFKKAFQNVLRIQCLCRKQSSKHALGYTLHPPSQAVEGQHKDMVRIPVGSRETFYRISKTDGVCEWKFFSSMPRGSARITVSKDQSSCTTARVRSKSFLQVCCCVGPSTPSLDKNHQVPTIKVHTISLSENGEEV
Source text: as §1

5-HT2A (h) = target: T5, 5-HT2A (h) (Homo sapiens, UniProt P28223); assay: In vitro CEREP profiling, 5-HT2A (h) (agonist radioligand); type: binding; conditions: test compound concentration 10 uM
T5 construct: purchased Eurofins Cerep (SafetyScreen44), recognised from the panel format
T5 sequence (P28223 whole entry): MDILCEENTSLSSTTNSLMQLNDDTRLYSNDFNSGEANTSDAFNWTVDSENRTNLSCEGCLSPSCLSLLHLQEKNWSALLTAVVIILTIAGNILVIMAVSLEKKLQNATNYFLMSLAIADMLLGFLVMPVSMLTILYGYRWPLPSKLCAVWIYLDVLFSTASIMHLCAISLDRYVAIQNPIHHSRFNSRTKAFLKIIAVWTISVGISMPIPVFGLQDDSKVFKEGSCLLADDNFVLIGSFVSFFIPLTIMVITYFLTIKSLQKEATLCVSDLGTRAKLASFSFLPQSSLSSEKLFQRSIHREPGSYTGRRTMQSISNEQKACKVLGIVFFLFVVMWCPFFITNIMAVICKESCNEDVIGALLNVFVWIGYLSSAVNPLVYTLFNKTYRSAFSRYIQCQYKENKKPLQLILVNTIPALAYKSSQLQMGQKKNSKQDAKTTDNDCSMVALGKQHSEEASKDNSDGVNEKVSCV
Source text: as §1

5-HT3 (h) = target: T6, 5-HT3 (h) (Homo sapiens, UniProt P46098); assay: In vitro CEREP profiling, 5-HT3 (h) (antagonist radioligand); type: binding; conditions: test compound concentration 10 uM
T6 construct: purchased Eurofins Cerep (SafetyScreen44), recognised from the panel format
T6 sequence (P46098 24-478): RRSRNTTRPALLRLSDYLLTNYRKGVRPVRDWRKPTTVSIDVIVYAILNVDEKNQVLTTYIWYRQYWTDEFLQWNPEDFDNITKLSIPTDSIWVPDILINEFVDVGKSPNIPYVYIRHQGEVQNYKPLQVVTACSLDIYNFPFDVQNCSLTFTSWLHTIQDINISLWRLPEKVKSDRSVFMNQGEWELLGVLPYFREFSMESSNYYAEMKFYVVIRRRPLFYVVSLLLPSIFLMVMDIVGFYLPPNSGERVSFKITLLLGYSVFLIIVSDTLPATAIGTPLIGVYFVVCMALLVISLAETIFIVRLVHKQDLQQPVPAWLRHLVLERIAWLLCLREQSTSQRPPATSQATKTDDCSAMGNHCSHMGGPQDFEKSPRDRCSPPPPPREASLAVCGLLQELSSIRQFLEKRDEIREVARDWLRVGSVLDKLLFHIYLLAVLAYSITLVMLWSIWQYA
Source text: as §1

V1a (h) = target: T7, V1a (h) (Homo sapiens, UniProt P37288); assay: In vitro CEREP profiling, V1a (h) (agonist radioligand); type: binding; conditions: test compound concentration 10 uM
T7 construct: purchased Eurofins Cerep (SafetyScreen44), recognised from the panel format
T7 sequence (P37288 whole entry): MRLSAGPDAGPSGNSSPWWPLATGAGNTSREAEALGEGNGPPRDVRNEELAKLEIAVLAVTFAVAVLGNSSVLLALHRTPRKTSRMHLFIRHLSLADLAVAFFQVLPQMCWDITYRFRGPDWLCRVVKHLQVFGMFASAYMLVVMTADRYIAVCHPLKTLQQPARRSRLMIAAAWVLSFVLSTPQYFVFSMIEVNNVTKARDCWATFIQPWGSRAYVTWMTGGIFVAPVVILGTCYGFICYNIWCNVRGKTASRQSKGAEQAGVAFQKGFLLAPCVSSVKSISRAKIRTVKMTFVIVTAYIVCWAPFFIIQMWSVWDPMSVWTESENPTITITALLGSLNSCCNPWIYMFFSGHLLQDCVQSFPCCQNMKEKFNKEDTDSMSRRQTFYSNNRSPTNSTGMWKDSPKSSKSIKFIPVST
Source text: as §1

human CHRM2 (M2) = target: T8, human CHRM2 (M2) (Homo sapiens, UniProt P08172); assay: Eurofins CEREP panel, M2; type: binding; conditions: M2 (h) (antagonist radioligand); test compound concentration 10 uM
T8 construct: purchased Eurofins Cerep (SafetyScreen44), recognised from the panel format
T8 sequence (P08172 1-466): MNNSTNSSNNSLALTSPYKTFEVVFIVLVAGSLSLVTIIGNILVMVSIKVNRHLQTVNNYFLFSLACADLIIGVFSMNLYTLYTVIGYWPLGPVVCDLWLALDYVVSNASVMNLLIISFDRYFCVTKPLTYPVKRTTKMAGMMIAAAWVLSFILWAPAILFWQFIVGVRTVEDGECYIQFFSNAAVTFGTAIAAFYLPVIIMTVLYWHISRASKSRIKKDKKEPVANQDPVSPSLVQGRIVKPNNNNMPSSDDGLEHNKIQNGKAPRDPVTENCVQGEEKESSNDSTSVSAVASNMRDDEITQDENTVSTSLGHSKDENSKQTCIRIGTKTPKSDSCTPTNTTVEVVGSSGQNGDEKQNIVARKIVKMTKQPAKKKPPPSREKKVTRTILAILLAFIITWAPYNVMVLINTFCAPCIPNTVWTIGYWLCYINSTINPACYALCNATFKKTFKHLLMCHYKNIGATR

[1] = In vitro mouse hepatocyte stability; type: in vitro ADME
Source text: Supplement media-1.zip/Hepatocyte_Stability.csv, table | column: clint; t_half

[2] = target: T9, Potassium Channel hERG (human) (Homo sapiens, UniProt Q12809); assay: In vitro CEREP profiling, Potassium Channel hERG (human)- [3H] Dofetilide; type: binding; conditions: test compound concentration 10 uM
T9 construct: purchased Eurofins Cerep (SafetyScreen44), recognised from the panel format
T9 sequence (Q12809 whole entry): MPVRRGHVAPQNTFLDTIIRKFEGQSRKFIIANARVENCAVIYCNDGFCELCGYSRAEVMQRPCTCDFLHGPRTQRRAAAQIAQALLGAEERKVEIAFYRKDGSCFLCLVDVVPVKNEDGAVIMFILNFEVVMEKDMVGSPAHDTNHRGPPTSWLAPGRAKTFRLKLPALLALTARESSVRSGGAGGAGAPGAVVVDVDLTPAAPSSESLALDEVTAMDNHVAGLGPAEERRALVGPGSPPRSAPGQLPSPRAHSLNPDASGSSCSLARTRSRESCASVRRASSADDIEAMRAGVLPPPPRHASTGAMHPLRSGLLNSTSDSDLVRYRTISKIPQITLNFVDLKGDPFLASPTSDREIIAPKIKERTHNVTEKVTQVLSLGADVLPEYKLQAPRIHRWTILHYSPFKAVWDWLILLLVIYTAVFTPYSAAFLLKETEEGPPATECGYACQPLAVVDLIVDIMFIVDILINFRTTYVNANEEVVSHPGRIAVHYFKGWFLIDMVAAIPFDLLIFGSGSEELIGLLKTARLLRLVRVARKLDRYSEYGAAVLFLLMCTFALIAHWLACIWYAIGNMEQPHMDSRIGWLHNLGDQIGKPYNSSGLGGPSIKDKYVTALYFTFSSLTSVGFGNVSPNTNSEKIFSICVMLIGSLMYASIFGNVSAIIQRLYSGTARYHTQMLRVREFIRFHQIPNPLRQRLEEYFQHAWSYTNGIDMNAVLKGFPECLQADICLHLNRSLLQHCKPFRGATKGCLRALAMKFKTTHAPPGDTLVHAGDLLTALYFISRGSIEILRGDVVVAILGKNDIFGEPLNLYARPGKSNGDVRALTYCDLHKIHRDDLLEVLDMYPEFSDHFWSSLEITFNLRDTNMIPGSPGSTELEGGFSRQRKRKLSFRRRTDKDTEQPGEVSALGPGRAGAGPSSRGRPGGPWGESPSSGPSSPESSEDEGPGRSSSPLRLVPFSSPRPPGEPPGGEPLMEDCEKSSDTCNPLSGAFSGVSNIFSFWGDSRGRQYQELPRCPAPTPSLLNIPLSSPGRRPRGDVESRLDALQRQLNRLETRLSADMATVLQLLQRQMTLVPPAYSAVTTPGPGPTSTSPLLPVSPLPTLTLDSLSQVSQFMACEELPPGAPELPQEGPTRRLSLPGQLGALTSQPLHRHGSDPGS
Source text: as §1

CYP = CYP inhibition; type: in vitro ADME; conditions: In vitro CYP inhibition pooled; for potency: potency class in words
Source text: Supplement media-1.zip/CYP_Inhibition.csv, table | column: ic50; potency

HeLa-ACE2 cells = conditions: HeLa-ACE2 cytotoxicity; for perc_max_measured: highest measured response of the dose series; for perc_min_measured: lowest measured response of the dose series

SMILES	perc_inhibition (% inhibition of the binding of a ligand specific for each target) (CCK1 (CCKA) (h)) [%]	perc_inhibition (% inhibition of the binding of a ligand specific for each target) (D2S (h)) [%]	perc_inhibition: % inhibition of the binding of a ligand specific for each target, 5-HT transporter (h) (antagonist radioligand) (5-HT transporter (h)) [%]	perc_inhibition (% inhibition of the binding of a ligand specific for each target) (alpha1A (h)) [%]	perc_inhibition (% inhibition of the binding of a ligand specific for each target) (5-HT2A (h)) [%]	perc_inhibition (% inhibition of the binding of a ligand specific for each target) (5-HT3 (h)) [%]	perc_inhibition (% inhibition of the binding of a ligand specific for each target) (V1a (h)) [%]	perc_inhibition (% inhibition of the binding of a ligand specific for each target) (human CHRM2 (M2)) [%]	clint [1] [uL/min/1E6 cells]	t_half [1] [min]	perc_inhibition (% inhibition of the binding of a ligand specific for each target) [2] [%]	IC50 (CYP; isoform 1A2) [µM]	potency (CYP; isoform 1A2)	IC50 (CYP; isoform 2C9) [µM]	potency (CYP; isoform 2C9)	IC50 (CYP; isoform 2C19) [µM]	potency (CYP; isoform 2C19)	IC50 (CYP; isoform 2D6) [µM]	potency (CYP; isoform 2D6)	IC50 (CYP; isoform 3A4) [µM]	further results
CC(C)[C@H](Nc1ncnc2[nH]ccc12)c1ccc2c(c1)S(=O)(=O)CCC2 [ASAP-0008674]	-2	-14	0	-2	12	8	6	34	567.0	1.22	20	> 50	weak	18.2	weak	15	weak	> 50	weak	3.2	potency (CYP; isoform 3A4): moderate; CC50 (HeLa-ACE2 cells): > 20 µM; cc10 (HeLa-ACE2 cells): > 20.0 µM; perc_max_measured (HeLa-ACE2 cells): 118.208% and 98.628%; perc_min_measured (HeLa-ACE2 cells): 91.836% and 85.869%
CC(C)[C@H](Nc1ncnc2[nH]c(-c3cnn(C)c3C#N)cc12)c1ccc2c(n1)OCCO2 [ASAP-0010715]	1	-7	4	34	15	6	27	18	91.6	7.57	29	35.2	weak	5.93	moderate	16.9	weak	27.7	weak	3.69	potency (CYP; isoform 3A4): moderate; CC50 (HeLa-ACE2 cells): 12.5 µM and > 20 µM; perc_max_measured (HeLa-ACE2 cells): 90.88% and 122.905% and 97.413%
CC(C)[C@@H](Nc1ncnc2[nH]c(-c3cnn(C)c3C#N)cc12)c1ccc2c(n1)OCCO2 [ASAP-0010716]	20	3	9	11	14	4	20	15	217.0	3.19	32	8.86	moderate	4.34	moderate	9.51	moderate	22.7	weak	2.07	potency (CYP; isoform 3A4): moderate; CC50 (HeLa-ACE2 cells): > 20 µM; cc10 (HeLa-ACE2 cells): > 20.0 µM; perc_max_measured (HeLa-ACE2 cells): 137.444% and 97.941%; perc_min_measured (HeLa-ACE2 cells): 84.699% and 78.982%
